The source made the active and inactive calls. No cut-off for these calls is given here.
Legend:
Assay type in all cases: nucleic-acid assay
Nucleic Acid [1] = assay: Ratio of S-adenosylmethionine Kd to compound Kd for SAM2 riboswitch aptamer
Nucleic Acid [2] = assay: Binding affinity to 2-amino purine labelled SAM2 riboswitch aptamer assessed as change in fluorescence at 5 mM to 10 mM at pH 8.3 by fluorescence binding assay
Nucleic Acid [3] = assay: Binding affinity to SAM1 riboswitch aptamer assessed as change in heat at 0.5 mM at pH 7.5 by Isothermal titration calorimetry

## CN1/C(=C\c2cc[n+](CCCC(=O)N[C@@H](CC[S+](C)C[C@H]3O[C@@H](n4cnc5c(N)ncnc54)[C@H](O)[C@@H]3O)C(=O)O)c3ccccc23)Sc2ccccc21 (stereo not given in full)
Nucleic Acid [1]
  Ratio: 2
Nucleic Acid [2]
  Activity: Active

## C[S+](CC[C@H](N)C(=O)[O-])C[C@H]1O[C@@H](n2cnc3c(N)ncnc32)[C@H](O)[C@@H]1O (stereo not given in full) [ADEMETIONINE]
Nucleic Acid [2]
  Activity: Active
  Kd: 6 µM

## Nc1ncnc2c1ncn2[C@@H]1O[C@H](CSCC[C@H](N)C(=O)O)[C@@H](O)[C@H]1O
Nucleic Acid [2]
  Activity: inactive

## C[S+](CC[C@H](NC(=O)CN)C(=O)O)C[C@H]1O[C@@H](n2cnc3c(N)ncnc32)[C@H](O)[C@@H]1O (stereo not given in full)
Nucleic Acid [2]
  Activity: inactive

## C[S+](CC[C@H](N)C(=O)NCCN)C[C@H]1O[C@@H](n2cnc3c(N)ncnc32)[C@H](O)[C@@H]1O (stereo not given in full)
Nucleic Acid [3]
  Activity: inactive
Nucleic Acid [2]
  Kd: 3.1 µM

## C[S+](CC[C@H](NC(=O)CNCCN)C(=O)O)C[C@H]1O[C@@H](n2cnc3c(N)ncnc32)[C@H](O)[C@@H]1O (stereo not given in full)
Nucleic Acid [2]
  Activity: inactive

## C[S+](CC[C@H](NC(=O)CCN)C(=O)O)C[C@H]1O[C@@H](n2cnc3c(N)ncnc32)[C@H](O)[C@@H]1O (stereo not given in full)
Nucleic Acid [2]
  Activity: inactive

Reference: ChEMBL document CHEMBL1817644, “Rational design of SAM analogues targeting SAM-II riboswitch aptamer” (Bioorg Med Chem Lett, 2011)
